≈ marks a conversion by molar mass, not a printed value.
What was measured:
[1] = Solubility of the compound in 20% SBE beta-cyclodextrin at pH 6; assay type: physicochemical
[2] = Clearance in iv dosed mouse; assay type: ADME, organism-based; details: in vivo

Row | Compound | solubility [1] [µg/mL] | clearance [2] [mL/min/kg]
1 | C[C@@H](Oc1cc(-n2cnc3cc(-c4ccnc(NCCS(C)(=O)=O)c4)ccc32)sc1C(N)=O)c1ccccc1Cl | 30 (≈ 50.3 µM) | 
2 | C[C@@H](Oc1cc(-n2cnc3cc(-c4ccnc(N5CCNCC5)c4)ccc32)sc1C(N)=O)c1ccccc1Cl |  | 58
3 | C[C@@H](Oc1cc(-n2cnc3cc(-c4ccnc(N5CCN(C)CC5)c4)ccc32)sc1C(N)=O)c1ccccc1Cl | 500 (≈ 872 µM) | 52
4 | C[C@@H](Oc1cc(-n2cnc3cc(-c4ccncc4)ccc32)sc1C(N)=O)c1ccccc1Cl | 3 (≈ 6.32 µM) | 70
5 | C[C@@H](Oc1cc(-n2cnc3cc(-c4ccnc(N5CCN(C)CC5)c4)ccc32)sc1C(N)=O)c1ccccc1C(F)(F)F | 870 (≈ 1430 µM) | 32
6 | C[C@@H](Oc1cc(-n2cnc3cc(-c4cnn(CCN5CCOCC5)c4)ccc32)sc1C(N)=O)c1ccccc1Cl | 530 (≈ 918 µM) | 82
7 | C[C@@H](Oc1cc(-n2cnc3cc(-c4ccnc(NCCN(C)C)c4)ccc32)sc1C(N)=O)c1ccccc1C(F)(F)F | 3230 (≈ 5430 µM) | 62
8 | C[C@@H](Oc1cc(-n2cnc3cc(-c4ccnc(N)n4)ccc32)sc1C(N)=O)c1ccccc1C(F)(F)F | 200 (≈ 381 µM) | 70
9 | C[C@@H](Oc1cc(-n2cnc3cc(-c4cnn(CCCN(C)C)c4)ccc32)sc1C(N)=O)c1ccccc1Cl | 5830 (≈ 10600 µM) | 44
10 | C[C@@H](Oc1cc(-n2cnc3cc(-c4ccnc(N)c4)ccc32)sc1C(N)=O)c1ccccc1C(F)(F)F | 1000 (≈ 1910 µM) | 38
11 | C[C@@H](Oc1cc(-n2cnc3cc(-c4ccnc(NCCO)c4)ccc32)sc1C(N)=O)c1ccccc1Cl | 300 (≈ 562 µM) | 109
12 | C[C@@H](Oc1cc(-n2cnc3cc(-c4ccc(NC5CCN(C)CC5)nc4)ccc32)sc1C(N)=O)c1ccccc1Cl | 2930 (≈ 4990 µM) | 19
13 | CCN1CCN(CCCn2cc(-c3ccc4c(c3)ncn4-c3cc(O[C@H](C)c4ccccc4Cl)c(C(N)=O)s3)cn2)CC1 | 3120 (≈ 5050 µM) | 44
14 | C[C@@H](Oc1cc(-n2cnc3cc(-c4ccnc(NC5CCN(C)CC5)c4)ccc32)sc1C(N)=O)c1ccccc1Cl | 1050 (≈ 1790 µM) | 48
15 | C[C@@H](Oc1cc(-n2cnc3cc(-c4cnn(C)c4)ccc32)sc1C(N)=O)c1ccccc1Cl | 100 (≈ 209 µM) | 15
16 | C[C@@H](Oc1cc(-n2cnc3cc(-c4cnn(CCN5CCN(C)CC5)c4)ccc32)sc1C(N)=O)c1ccccc1Cl | 4550 (≈ 7710 µM) | 54

— ChEMBL document CHEMBL1208730, “Heteroaryl-linked 5-(1H-benzimidazol-1-yl)-2-thiophenecarboxamides: potent inhibitors of polo-like kinase 1 (PLK1) with improved drug-like properties” (Bioorg Med Chem Lett, 2010)
